Data on 1 compound can be found in patent publication US10342836B2, “Composition having a function for alleviating premenstrual syndrome and menstrual pain” (AMOREPACIFIC CORPORATION, priority 2013, dated 2019).

The test system of this experiment is women of child-bearing ages. Briefly: Evaluation of improvement in premenstrual syndrome and menstrual pain by questionnaire before and after about 4 weeks of oral tablets. The class given is in vivo, human. The source says:
The American Psychiatric Association presents the following diagnosis standard for premenstrual syndrome.
According to the standard, women who satisfy at least 5 of the following 11 items and at least one of the first 4 items were selected for test.
(1) Quick change in emotion; sudden sadness, anger or rage
(2) Persistent severe anger and uneasiness
(3) Uneasiness and tension
(4) Depression and hopelessness
(5) Disinterest in daily lives
(6) Fatigue or low energy
(10) Difficulty in emotion control
(11) Breast tenderness, headache, edema, muscle or joint pain and weight gain
For the test, 350 mg tablets containing 100 wt % of the ginseng fruit extract of
A table top tablet making machine (Erweka, Germany) was used.
40 women were selected from 48 women of child-bearing ages (in their 20s to 50s) according to the diagnosis standard. They were divided into 4 groups: i.e., unadministered group, red ginseng group, ginsenoside Re group, and ginseng fruit group. Each group was composed of 10 subjects.
The red ginseng group was asked to take the red ginseng-containing tablets for 4 weeks, twice a day, two tablets once. That is to say, 1400 mg/day of red ginseng extract was administered to them.
The ginsenoside Re group was asked to take tablets containing ginsenoside Re as an active ingredient twice a day, two tablets once. […] The content of ginsenoside Re was determined based on the analysis result shown in FIG. 1 for comparison of the effect of improving premenstrual syndrome and menstrual pain of ginseng fruit extract and only ginsenoside Re contained therein.
The ginseng fruit group was asked to take the ginseng fruit extract-containing tablets for 4 weeks, twice a day, two tablets once. That is to say, 1400 mg/day of ginseng fruit extract was administered to them.
The 40 women were asked to answer questionnaires first after menstruation and, after the administration of nothing, the red ginseng extract or the ginseng fruit extract, to answer questionnaires after the next menstruation was over (about 4 weeks later). The improvement in the symptoms of premenstrual syndrome was evaluated by monitoring the change in total scores based on the questionnaires. One point was given for each item.

[1] abbreviates: group total, n = 10 women, about 4 weeks, 1400 mg/day extract or 240 mg/day ginsenoside Re.
The mark [2] stands for this setting: n = 10 per group, about 4 weeks, 1400 mg/day extract or 240 mg/day ginsenoside Re.

Regarding `CC(C)=CCC[C@](C)(O[C@@H]1O[C@H](CO)[C@@H](O)[C@H](O)[C@H]1O)[C@H]1CC[C@]2(C)[C@@H]1[C@H](O)C[C@@H]1[C@@]3(C)CC[C@H](O)C(C)(C)[C@@H]3[C@@H](O[C@@H]3O[C@H](CO)[C@@H](O)[C@H](O)[C@H]3O[C@@H]3O[C@@H](C)[C@H](O)[C@@H](O)[C@H]3O)C[C@]12C` [Ginsenoside Re, ginsenoside Re], under setting [1], the “Total score, difference (before minus after administration)” value came out at 9 and the “Total score, difference in percent of the score before administration” value amounted to 12%. For the setting “group total, n = 10 women, after next menstruation (about 4 weeks), tablets twice a day, two tablets once: 1400 mg/day extract or 240 mg/day ginsenoside Re”, the “Total score (premenstrual syndrome questionnaire), after administration” value is listed as 66. Further, for the setting “group total, n = 10 women, one point per item (11 items), questionnaire after menstruation, before administration”, the “Total score (premenstrual syndrome questionnaire), before administration” value worked out at 75. Under setting [2], the “Number of women who felt the symptoms, difference (before minus after)” value worked out at 2 and the “Number of women who felt the symptoms, difference in percent” value worked out at 20%. Also, the “Number of women who felt the symptoms of premenstrual syndrome, after administration” value (n = 10 per group, after about 4 weeks, 1400 mg/day extract or 240 mg/day ginsenoside Re) is given as 8. The “Number of women who felt the symptoms of premenstrual syndrome, before administration” value (n = 10 per group, before administration) is given as 10.
